Results from patent US9707267B2, “Beta-turn peptidomimetic cyclic compounds for treating dry eye” (Mimetogen Pharmaceuticals, Inc., priority 2008, dated 2017).
Where “and” joins values, the source holds several entries; their conditions need not be identical. Identical values can stand only once.

What was measured:
Type in all cases: in vivo
[1] = tested on: Scopolamine Induced Rat Dry Eye Model; assay: Scopolamine induced rat dry eye model, mucin in tear fluid washings, ELLA (Example 5); settings: for Tear Mucin: ± SD
Procedure: (§1) Dry eye was induced using scopolamine hydrobromide (Sigma-Aldrich, St. Louis, Mo.), which was continuously and systemically delivered to the animals via an osmotic pump (2ML4 Alzet®; CedarLane, Burlington, Ontario) filled with scopolamine and implanted subcutaneously in the mid dorsal area between the scapulae. Scopolamine was delivered for a twenty-eight day period at 12.5 mg/day, which translated to 30.0±1.5 mg/kg via osmotic pump.
(§2) Treatments for G2-G6 continued daily for seventeen days (up to an including day twenty-one). Thereafter, treatments were terminated but the study continued for another week. During treatment, each animal was anesthetized in an isoflurane chamber. Once asleep, each animal received a 5 μL topical instillation of test article into the lower conjunctival sac of both eyes using a calibrated micropipette. If a clinical endpoint was also being tested, the test article was topically instilled at the end of the testing.
Tear fluid washings were collected from all six groups of rats on day 12 (after 7 daily treatments), day 19 (after 14 daily treatments) and day 28 (after treatment was stopped for 7 days) after instillation of 5 μL sterile saline in the lower conjunctival sac of the anaesthetized animal. The lids were blinked gently to mix the tear film with the saline. The diluted tear fluid was collected with a 5 μL volume glass capillary tube (Drummond Scientific Co, Broomhall, Pa.) by capillary action from the tear meniscus in the lateral canthus. Approximately 4-5 μL were routinely collected. In very dry eyes, a second 5 μL aliquot of saline was instilled before collection.
The concentrations of mucin glycoprotein in the diluted tear fluid washings were determined by an enzyme-linked lectin assay (ELLA). A sample containing 3 μg total protein was diluted to 100 μL in carbonate buffer pH 9.2 and transferred to a 96-well polystyrene microtiter plate (Corning Life Sciences #2592, Fisher Scientific, Nepean, Ontario). A dilution series of bovine submaxillary mucin (Sigma, St. Louis, Mo.) was included on each plate as the standard. The plates were coated by evaporation at 37° C. overnight. After, the plates were washed three times with wash buffer [PBS containing 0.3% BSA, 0.05% Tween-20] then blocked for nonspecific binding with PBS containing 3% BSA and 0.05% Tween-20 at 37° C. for one hour. The wells were rinsed three times in wash buffer, and then incubated in 2 μg/mL biotinylated UEA-1 diluted in wash buffer (Vector Labs, Burlingame, Calif.) at 37° C. for one hour. The wells were rinsed three times in wash buffer, and then incubated in 1 μg/mL HRP-conjugated neutravidin diluted in wash buffer (Pierce, Rockford, Ill.) at 37° C. for one hour. After the wells were rinsed three times in wash buffer the color development was performed with TMB (Promega, Madison, Wis.) and stopped with 0.5N Sulfuric acid. The concentration of mucin in the tear fluid washings was calculated as the ng mucin divided by the volume of tear fluid washing in μL that gave 3 μg total protein.

[2] = tested on: Scopolamine Induced Rat Dry Eye Model; assay: Scopolamine induced rat dry eye model, tear fluorescein clearance (Example 5); settings: ± SD
Procedure: as §1, §2
[…] Tear fluorescein clearance was evaluated as described for humans (Alfonso, A. A., et al., “Correlation of Tear Fluorescein Clearance and Schirmer Test Scores with Ocular Irritation Symptoms,” Ophthalmology 106:803-810 (1999), which is incorporated herein by reference in its entirety) and modified for rats (Chen, W., et al., “Keratoconjunctivitis Sicca Modifies Epithelial Stem Cell Proliferation Kinetics in Conjunctiva,” Cornea 26:1101-1106 (2007), which is incorporated herein by reference in its entirety). Animals were lightly sedated with Isoflurane and two microliters of 1% sodium fluorescein (Sigma-Aldrich, St. Louis, Mo.) solution (in sterile saline) was applied to the lower conjunctival sac. The animals awoke within two minutes. After fifteen minutes, the animals were re-sedated and the fluorescein-stained tear fluid was collected with a phenol-red cotton thread (as described for Schirmer testing). The threads were immediately sealed in 1.5 mL polypropylene Eppendorf tubes shielded from light until fluorophotometric analysis. The volume of the collected tear fluid was determined by the length of cotton wetting in mm. After, 100 μl of phosphate-buffered saline (PBS) was added, the tubes were spun at 12,000 rpm for five minutes and the fluid transferred to a 96-well polystyrene microtiter plate (Corning Life Sciences #2592, Fisher Scientific, Nepean, Ontario). A standard well was prepared on each plate, which consisted of a phenol-red thread placed in 100 μl PBS containing 2 μl of 1% sodium fluorescein solution. Fluorescence was measured immediately using a fluorescence microplate reader (FLUOstar OPTIMA, BMG Labtech, Germany) after setting the gain to the standard well. The concentration of fluorescein in tears was calculated from the fluorescence units divided by the mm of cotton wetting (Fu/mm).

[3] = tested on: Scopolamine Induced Rat Dry Eye Model; assay: Scopolamine induced rat dry eye model, Schirmer test (Example 5); settings: ± SD
[4] = 0.4% group, Day 2, before treatment start (day 5)
[5] = 0.4% topical 1× daily Days 5-21, Day 5 (test before first instillation)
[6] = 0.4% topical 1× daily Days 5-21, Day 7
[7] = 0.4% topical 1× daily Days 5-21, Day 14
[8] = 0.4% topical 1× daily Days 5-21, Day 20
[9] = 1.0% group, Day 2, before treatment start (day 5)
[10] = 1.0% topical 1× daily Days 5-21, Day 5 (test before first instillation)
[11] = 1.0% topical 1× daily Days 5-21, Day 7
[12] = 1.0% topical 1× daily Days 5-21, Day 14
[13] = 2.5% group, Day 2, before treatment start (day 5)
[14] = 2.5% topical 1× daily Days 5-21, Day 5 (test before first instillation)
[15] = 2.5% topical 1× daily Days 5-21, Day 20
[16] = 0.00053% group, Day 2, before treatment start (day 5)
[17] = 0.00053% topical 1× daily Days 5-21, Day 20

`NCCCC[C@@H]1NC(=O)[C@H](CCC(=O)O)NC(=O)c2cc([N+](=O)[O-])ccc2OCCC(C(=O)NCC(=O)O)NC1=O` (stereo partly shown) [Compound D3] was tested. Which “Tear Mucin” value ([1]; 0.4% topical 1× daily Days 5-21, Day 12) did it give?
Its value is 2.7 ± 2.2 ng/µL.

And the “Tear Mucin” value ([1]; 0.4% topical 1× daily Days 5-21, Day 19)?
Its value is 6.8 ± 3.2 ng/µL.

And the “Tear Mucin” value ([1]; 0.4% topical 1× daily Days 5-21, Day 28 (7 days after treatment stopped))?
The value was 4.4 ± 3.8 ng/µL.

What about the “changes in mucin production at Day 28 as compared to Day 12 (in words)” value ([1]; 1% dose vs untreated and saline control groups) of the same compound?
Its value is “statistically significantly increased mucin production”.

And the “Tear Mucin” value ([1]; 1.0% topical 1× daily Days 5-21, Day 12)?
Its value is 3.3 ng/µL and 3.3 ± 1.9 ng/µL.

What about the “Tear Mucin” value ([1]; 1.0% topical 1× daily Days 5-21, Day 19) of the same compound?
Its value is 9.1 ng/µL and 9.1 ± 5.1 ng/µL.

What about the “Tear Mucin” value ([1]; 1.0% topical 1× daily Days 5-21, Day 28 (7 days after treatment stopped)) of the same compound?
The value was 6.8 ng/µL and 6.8 ± 4.9 ng/µL.

And the “Tear Mucin” value ([1]; 2.5% topical 1× daily Days 5-21, Day 12)?
Its value is 1.6 ± 0.9 ng/µL.

And the “Tear Mucin” value ([1]; 2.5% topical 1× daily Days 5-21, Day 19)?
Its value is 6.5 ± 2.4 ng/µL.

And the “Tear Mucin” value ([1]; 2.5% topical 1× daily Days 5-21, Day 28 (7 days after treatment stopped))?
The value was 3.0 ± 1.1 ng/µL.

And the “Tear Fluorescein Clearance” value [2, 4]?
Its value is 516 ± 305 FU/mm.

What about the “Tear Fluorescein Clearance” value ([2]; 0.4% group, Day −1, baseline, before treatment start (day 5)) of the same compound?
The value was 288 ± 247 FU/mm.

What about the “Tear Fluorescein Clearance” value [2, 5] of the same compound?
The value was 969 ± 732 FU/mm.

What about the “Tear Fluorescein Clearance” value [2, 6] of the same compound?
The value was 296 ± 156 FU/mm.

And the “Tear Fluorescein Clearance” value [2, 7]?
The value was 635 ± 599 FU/mm.

What about the “Tear Fluorescein Clearance” value [2, 8] of the same compound?
Its value is 667 ± 508 FU/mm.

And the “Tear Fluorescein Clearance” value [2, 9]?
Its value is 880 ± 673 FU/mm.

What about the “Tear Fluorescein Clearance” value ([2]; 1.0% group, Day −1, baseline, before treatment start (day 5)) of the same compound?
Its value is 575 ± 682 FU/mm.

What about the “Tear Fluorescein Clearance” value [2, 10] of the same compound?
The value was 550 ± 369 FU/mm.

What about the “Tear Fluorescein Clearance” value [2, 11] of the same compound?
Its value is 1098 ± 639 FU/mm.

What about the “Tear Fluorescein Clearance” value [2, 12] of the same compound?
The value was 686 ± 306 FU/mm.

And the “Tear Fluorescein Clearance” value ([2]; 1.0% topical 1× daily Days 5-21, Day 20)?
Its value is 1067 ± 773 FU/mm.

And the “Tear Fluorescein Clearance” value [2, 13]?
The value was 777 ± 592 FU/mm.

And the “Tear Fluorescein Clearance” value ([2]; 2.5% group, Day −1, baseline, before treatment start (day 5))?
The value was 428 ± 312 FU/mm.

What about the “Tear Fluorescein Clearance” value [2, 14] of the same compound?
Its value is 671 ± 344 FU/mm.

What about the “Tear Fluorescein Clearance” value ([2]; 2.5% topical 1× daily Days 5-21, Day 7) of the same compound?
Its value is 561 ± 231 FU/mm.

What about the “Tear Fluorescein Clearance” value ([2]; 2.5% topical 1× daily Days 5-21, Day 14) of the same compound?
Its value is 791 ± 235 FU/mm.

And the “Tear Fluorescein Clearance” value [2, 15]?
Its value is 673 ± 170 FU/mm.

What about the “Schirmer's Test” value [3, 4] of the same compound?
The value was 9.6 ± 3.0 mm.

And the “Schirmer's Test” value ([3]; 0.4% group, Day −1, presurgical, before treatment start (day 5))?
Its value is 11.9 ± 4.4 mm and 11.9 ± 4.2 mm.

And the “Schirmer's Test” value [3, 5]?
The value was 7.9 ± 3.2 mm.

And the “Schirmer's Test” value [3, 6]?
Its value is 7.9 ± 1.6 mm.

What about the “Schirmer's Test” value [3, 7] of the same compound?
The value was 8.6 ± 3.0 mm.

What about the “Schirmer's Test” value [3, 8] of the same compound?
The value was 7.2 ± 1.8 mm.

What about the “Schirmer's Test” value ([3]; 0.4% topical 1× daily Days 5-21, Day 29 (after treatment stopped)) of the same compound?
The value was 9.4 ± 2.0 mm.

And the “Schirmer's Test” value [3, 9]?
The value was 9.8 ± 4.0 mm and 9.8 ± 3.8 mm.

What about the “Schirmer's Test” value ([3]; 1.0% group, Day −1, presurgical, before treatment start (day 5)) of the same compound?
Its value is 11.3 ± 4.5 mm and 11.3 ± 3.0 mm.

And the “Schirmer's Test” value [3, 10]?
The value was 7.9 ± 2.3 mm.

What about the “Schirmer's Test” value [3, 11] of the same compound?
Its value is 9.5 ± 4.2 mm.

What about the “Schirmer's Test” value [3, 12] of the same compound?
Its value is 7.3 ± 2.3 mm.

What about the “Schirmer's Test” value ([3]; 1.0% topical 1× daily Days 5-21, Day 29 (after treatment stopped)) of the same compound?
The value was 9.0 ± 2.9 mm.

And the “Schirmer's Test” value [3, 13]?
Its value is 9.8 ± 2.4 mm.

And the “Schirmer's Test” value ([3]; 2.5% group, Day −1, presurgical, before treatment start (day 5))?
The value was 11.5 ± 2.2 mm and 11.5 ± 1.8 mm.

And the “Schirmer's Test” value [3, 14]?
The value was 9.6 ± 1.8 mm.

And the “Schirmer's Test” value [3, 15]?
Its value is 9.1 ± 2.3 mm.

And the “Schirmer's Test” value ([3]; 2.5% topical 1× daily Days 5-21, Day 29 (after treatment stopped))?
The value was 7.7 ± 1.6 mm.

What does the source list for “NGF: nerve growth factor (recombinant human), positive control”?
Tear Mucin ([1]; 0.00053% topical 1× daily Days 5-21, Day 12): 3.0 ± 2.3 ng/µL; Tear Mucin ([1]; 0.00053% topical 1× daily Days 5-21, Day 19): 6.8 ± 3.8 ng/µL; Tear Mucin ([1]; 0.00053% topical 1× daily Days 5-21, Day 28 (7 days after treatment stopped)): 2.4 ± 2.0 ng/µL; Tear Fluorescein Clearance [2, 16]: 933 ± 824 FU/mm; Tear Fluorescein Clearance ([2]; 0.00053% group, Day −1, baseline, before treatment start (day 5)): 483 ± 562 FU/mm; Tear Fluorescein Clearance ([2]; 0.00053% topical 1× daily Days 5-21, Day 5 (test before first instillation)): 804 ± 432 FU/mm; Tear Fluorescein Clearance ([2]; 0.00053% topical 1× daily Days 5-21, Day 7): 1080 ± 572 FU/mm; Tear Fluorescein Clearance ([2]; 0.00053% topical 1× daily Days 5-21, Day 14): 1097 ± 1112 FU/mm; Tear Fluorescein Clearance [2, 17]: 861 ± 414 FU/mm; Schirmer's Test [3, 16]: 9.9 ± 4.9 mm and 9.9 ± 4.8 mm; Schirmer's Test ([3]; 0.00053% group, Day −1, presurgical, before treatment start (day 5)): 11.2 ± 3.7 mm and 11.2 ± 3.2 mm; Schirmer's Test [3, 17]: 7.1 ± 2.4 mm
